# Source: US20250144054A1, “SMALL MOLECULE STAT3 INHIBITOR FOR TREATING TRIPLE NEGATIVE BREAST CANCER” (UNIVERSITY OF MARYLAND, BALTIMORE, priority 2022, published 2025)
# What was measured:
# [1] = system: STAT3; assay: IL-6 induced STAT3 phosphorylation, Western blot, T47D cells; format: cell-based, human; settings: pretreated 2 hours serum-free, 50 ng/ml IL-6 30 minutes
# Procedure: (§1) (A) The chemical structures of LLL12B and LLL12. The carbamate ester bond of LLL12B is hydrolytically cleaved by the tumor-associated plasmin to release LLL12. (B) SUM159 cells were seeded in a 6-well plate and treated with LLL12B for 8 hours. Cells were stained with Phospho-Stat3 (Tyr705) and DAPI (indicated by arrows). Green: P-STAT3 (Y705); Blue: DAPI. T47D (C) and MDA-MB-231 (D) breast cancer cells were pretreated with DMSO or LLL12B in a serum-free medium for 2 hours and stimulated with 50 ng/ml of IL-6, IFN-γ, or EGF for additional 30 minutes. Cells were collected and analyzed by Western blot. GAPDH served as a protein loading control.
# (§2) Western blot. Cells were collected and total protein was extracted using cell lysis buffer (Cell Signaling Technology, Danvers, MA, USA). Protein concentration was determined using the Pierce BCA Protein Assay Kit (Thermo Fisher Scientific, Waltham, MA, USA) according to the manufacturer's instructions. Equal amounts of protein were separated by 10% SDS-PAGE gels and transferred to PVDF membranes. Membranes were blocked in 5% non-fat milk at room temperature and probed with specific antibodies P-STAT3 (Y705), STAT3, Cyclin D1, Cleaved Caspase-3, P-STAT1 (Y701), STAT1, P-ERK, ERK or GAPDH (1:1000, Cell Signaling Technology, Danvers, MA, USA) at 4° C. overnight. […]
# [2] = system: STAT1; assay: IFN-γ induced STAT1 phosphorylation, Western blot, T47D cells; format: cell-based, human; settings: pretreated 2 hours, 50 ng/ml IFN-γ 30 minutes
# Procedure: as §1, §2
# [3] = system: STAT3; assay: Western blot of P-STAT3 (Y705), STAT3, Cyclin D1, Cleaved Caspase-3 in 4T1 cells; format: cell-based, murine; settings: 4T1, overnight, vs DMSO
# Procedure: (A) MDA-MB-231, SUM159, and 4T1 cell lines were treated with DMSO or LLL12B overnight and the expression levels of P-STAT3 (Y705), STAT3, Cyclin D1, and Cleaved Caspase-3 were analyzed by Western blot. GAPDH served as a protein loading control. (B) MDA-MB-231 cells were treated with DMSO or C188-9 overnight and the expression levels of P-STAT3 (Y705), STAT3, Cyclin D1, and Cleaved Caspase-3 were analyzed by Western blot. (C) MDA-MB-231, SUM159, and 4T1 cells were seeded in a 96-well plate and treated with DMSO or LLL12B for 5 hours and a Caspase-3/7 Fluorescence Assay Kit was used to detect the activation of caspase-3/7. (D) MDA-MB-231, SUM159, and 4T1 cell lines were treated with DMSO or LLL12B for 8-12 hours, and flow cytometry was performed to analyze annexin V and PI staining. The quantification of apoptotic cells was shown in the right panel. ** P<0.01, *** P<0.001 and ****P<0.0001.
# SiRNA and transfection. STAT3 siRNA and Negative Control siRNA (Cell Signaling Technology, Danvers, MA, USA) were used to knock down STAT3 in MDA-MB-231, SUM159, and 4T1 cell lines. Cells were transfected with STAT3 siRNA or Negative Control siRNA using Lipofectamine RNAiMAX (Invitrogen, Carlsbad, CA, USA) according to the manufacturer's instructions. After 72 hours, cell viability was examined by MTT cell viability assay, and the transfection efficiency was examined by western blot.
# as §2
# [4] = system: caspase-3/7; assay: Caspase-3/7 activity assay, 4T1 cells; format: cell-based, murine; settings: 4T1, 5 hours, vs DMSO
# Procedure: Caspase-3/7 activity assay. The Caspase-3/7 Fluorescence Assay Kit (Cayman, Ann Arbor, MI, USA) was used to detect the activation of caspase-3/7 and the assay was performed according to the manufacturer's instructions. Briefly, MDA-MB-231, SUM159, and 4T1 cells were seeded in a 96-well plate in triplicate. After overnight incubation, cells were treated with either LLL12B or DMSO for 5 hours. Cells were lysed and processed to measure caspase-3/7 activity and the fluorescence intensity was read (excitation=485 nm; emission=535 nm).
# [5] = system: MDA-MB-231 cells; assay: Annexin V and PI flow cytometry, MDA-MB-231 cells; format: cell-based, human; settings: MDA-MB-231, 8-12 hours, vs DMSO
# Procedure: Flow cytometry analysis. Flow cytometry was performed to detect cell apoptosis. The APC Annexin V Apoptosis Detection Kit (Biolegend, San Diego, CA, USA) was used for Annexin V staining. Cells were seeded in a 35 mm culture dish at a density of 1×10^5 cells/dish. After overnight incubation, cells were treated with DMSO or LLL12B for 8-12 hours. Cells were harvested and stained with Annexin V-APC and propidium iodide (PI) according to the manufacturer's instructions. After staining, cells were counted using a FACSCanto II flow cytometer (BD Biosciences, San Jose, CA, USA).
# [6] = system: 4T1 cells; assay: Wound healing assay, 4T1 cells; format: cell-based, murine; settings: 4T1, vs DMSO
# Procedure: Wound healing assay. MDA-MB-231, SUM159, and 4T1 cells were seeded in a 6-well plate and cultured until fully confluent. A straight scratch crossing the monolayer was created using a 200 μl pipette tip and images of scratched areas were taken. Next, cells were treated with DMSO or LLL12B. Then, images were taken until the scratch of DMSO-treated cells was closed and the relative migration (%) was calculated.
# [7] = system: HPAC cells; assay: MTT cell viability assay, HPAC cells; format: cell-based, human; settings: 3 days
# Procedure: The human pancreatic cancer cell lines HPAC and PANC-1 were seeded and allowed to attach for 24 hours. Then cells were treated with different concentrations of LLL12B for 3 days and the cell viability was determined by MTT cell viability assay.
# [8] = system: medulloblastoma cells; settings: refs [25,31]; cited from earlier work
# [9] = target: STAT3 (Homo sapiens, UniProt P40763); settings: refs [25,27,28]; cited from earlier work
# Chain of STAT3 (Homo sapiens, UniProt P40763) (P40763 whole entry, species assumed): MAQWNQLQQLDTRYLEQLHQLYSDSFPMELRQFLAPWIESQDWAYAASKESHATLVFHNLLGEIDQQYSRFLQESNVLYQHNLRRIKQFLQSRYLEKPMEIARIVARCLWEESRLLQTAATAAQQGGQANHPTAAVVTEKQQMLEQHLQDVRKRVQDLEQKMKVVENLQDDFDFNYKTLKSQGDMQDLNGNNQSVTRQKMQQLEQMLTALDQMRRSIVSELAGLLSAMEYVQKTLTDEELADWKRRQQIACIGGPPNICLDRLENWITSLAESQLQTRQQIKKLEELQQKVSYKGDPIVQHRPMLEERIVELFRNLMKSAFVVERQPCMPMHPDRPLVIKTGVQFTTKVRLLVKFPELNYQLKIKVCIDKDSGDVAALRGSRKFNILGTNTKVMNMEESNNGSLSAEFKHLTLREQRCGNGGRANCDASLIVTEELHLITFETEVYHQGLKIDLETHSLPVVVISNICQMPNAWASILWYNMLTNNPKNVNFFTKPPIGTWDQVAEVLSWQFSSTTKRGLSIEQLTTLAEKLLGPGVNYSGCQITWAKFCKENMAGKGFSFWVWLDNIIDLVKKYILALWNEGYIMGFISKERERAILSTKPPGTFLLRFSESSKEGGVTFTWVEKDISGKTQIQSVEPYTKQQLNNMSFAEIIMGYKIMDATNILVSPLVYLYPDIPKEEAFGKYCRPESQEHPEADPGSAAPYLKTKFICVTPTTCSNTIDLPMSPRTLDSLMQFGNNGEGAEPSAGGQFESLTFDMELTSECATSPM
smiles,measurement,setting,value
CN(C)C(=O)Oc1cccc2c1C(=O)c1cccc(S(N)(=O)=O)c1C2=O [LLL12B],IL-6 induced phosphorylation of STAT3 (Y705),[1],inhibited
same,induction of P-STAT1 (Y701) stimulated by IFN-γ,[2],did not inhibit
same,Cyclin D1 expression,[3],decreased
same,expression of Cleaved Caspase-3,[3],enhanced
same,phosphorylation of STAT3,[3],decreased
same,activation of caspase-3/7,[4],induced the activation
same,percentage of apoptotic cells,[5],significantly increased
same,wound closure (cell migration),[6],effectively inhibited
same,cell viability,[7],significantly inhibits
same,apoptosis,[8],induced apoptosis
same,tumor growth,[8],suppressed tumor growth
same,binding to the pTyr705 binding site of STAT3,[9],binds directly
